Series [1] deals with ABT-199 resistant MM lines (KMS11, L363, RPMI-8226, MM.1S, U266). Here is the method:
Complex I inhibition with piercidin or SDHA inhibition with 3-NPA. L363, MM.15 and KMS 11 cells were cultured in the presence or absence of 0.S μM ABT-199 with or without either Complex I inhibitor piericidin (0.001 mM) or Complex II inhibitor 3NPA (1 mM) or TTFA (100 μM) for 24 hrs.
KMS11, L363, RPMI-8226, MM.1S, U266 (ABT-199 resistant cell lines) and KMS12PE and OCIMY5 (ABT-199 sensitive cell lines) were cultured in presence of SQR inhibitor TTFA (100 uM) or DEX (0.5 uM) either alone or in combination with ABT-199 (0.5 uM) for 24 hrs. Cell viability was assessed by Annexin V-DAPI staining and Flow cytometry.
Resistant MM lines were treated with TTFA and/or a dose range of ABT-199 and cell death evaluated by Annexin V/DAPI staining.

In series [2] the test system is CD38+ve MM cells from myeloma patient samples. Briefly: Cytotoxicity in myeloma patient sample cells. It is filed as cell-based, human. Conditions: TTFA with ABT-199.
Series [3] relates to normal cell populations contained within the bone marrow aspirate of patient sample. Briefly: Cytotoxicity in normal cells within myeloma patient sample. The class given is cell-based. The text has this: Synthetic lethality are not cytotoxic as a single agent in cell lines or primary normal cells associated with a myeloma patient sample.
Series [4] has as its system BIM, BIM-Bcl-2 binding, Foxo3a. Briefly: Protein expression and co-immunoprecipitation analyses upon SDH inhibition. It is filed as cell-based. From the text:
Thus, a tumor selective approach of metabolically-driven synthetic lethality relies on inhibition of the mitochondrial enzyme SDH and use of the Bcl-2 antagonist, e.g., ABT-199 for myeloma therapy.

The target in series [5] is Complex II/SDH succinate ubiquinone reductase (SQR) activity (Homo sapiens, UniProt O14521+P21912+P31040+Q99643). Briefly: SQR (succinate ubiquinone reductase) activity assay in permeabilized cells, DCPIP absorbance at 600 nm. Particulars: for SQR activity upon addition of inhibitor: KMS11 cells, 20 mM succinate as substrate, malonate 5 mM.
Method: Cells are resuspended in permeabilization buffer (10 mM KH2PO4 pH 7.8, 2 mM EDTA and 1 mg/ml BSA). 20 mM succinate is added as a substrate with or without 5 mM malonate (an SDH inhibitor) followed by a 10 min incubation at RT. SQR activity is determined by measuring electron transfer from succinate to decylubiquinone and 2,6-dichlorophenolindophenol (DCPIP) that leads to a change in absorbance of DCPIP monitored at 600 nm for 10 min.
SQR activity is measured in live permeabilized cells, with intact mitochondria by pre-treating with inhibitors of Complex I (rotenone) and Complex III (antimycin) leaving Complex II/SDH activity intact. SQR activity correlates with electron transfer from ubiquinone bound in SQR's Qp site to the redox sensitive dye, DCIPIP.
Series [6] concerns MM patients exhibiting the (11;14) translocation. Particulars: t(11;14) patients, cited from earlier work.
Where [7] appears, read: ABT-199 0.5 μM with TTFA 100 μM, piericidin 0.001 mM or 3NPA 1 mM, 24 hrs, Annexin V/DAPI.

The values that follow come from patent US12357629B2, “Uses of BCL-2 antagonists for treating cancer and diagnostics related thereto” (Emory University, priority 2018, dated 2025).

“Also recorded” adds a separate entry of the source. Like-named read-outs stand apart in the source and are kept apart here.

Chain of Complex II/SDH succinate ubiquinone reductase (SQR) activity (P31040 43-664): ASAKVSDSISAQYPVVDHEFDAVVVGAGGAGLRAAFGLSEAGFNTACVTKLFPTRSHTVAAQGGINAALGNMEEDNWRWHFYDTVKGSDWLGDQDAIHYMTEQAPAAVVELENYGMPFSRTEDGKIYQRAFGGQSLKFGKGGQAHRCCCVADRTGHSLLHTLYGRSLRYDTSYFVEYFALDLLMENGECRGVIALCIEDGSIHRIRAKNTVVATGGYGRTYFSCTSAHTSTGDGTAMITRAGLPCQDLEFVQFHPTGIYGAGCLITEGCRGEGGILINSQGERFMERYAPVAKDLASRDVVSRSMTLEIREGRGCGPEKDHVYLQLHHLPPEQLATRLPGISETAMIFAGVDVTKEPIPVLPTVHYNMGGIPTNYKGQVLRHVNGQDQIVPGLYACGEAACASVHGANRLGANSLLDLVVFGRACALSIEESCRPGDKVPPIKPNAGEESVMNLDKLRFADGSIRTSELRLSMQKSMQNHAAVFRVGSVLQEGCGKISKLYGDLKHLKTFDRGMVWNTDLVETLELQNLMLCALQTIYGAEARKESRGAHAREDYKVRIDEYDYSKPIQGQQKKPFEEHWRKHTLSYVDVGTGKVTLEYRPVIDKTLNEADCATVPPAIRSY
Chain of Complex II/SDH succinate ubiquinone reductase (SQR) activity (P21912 29-280): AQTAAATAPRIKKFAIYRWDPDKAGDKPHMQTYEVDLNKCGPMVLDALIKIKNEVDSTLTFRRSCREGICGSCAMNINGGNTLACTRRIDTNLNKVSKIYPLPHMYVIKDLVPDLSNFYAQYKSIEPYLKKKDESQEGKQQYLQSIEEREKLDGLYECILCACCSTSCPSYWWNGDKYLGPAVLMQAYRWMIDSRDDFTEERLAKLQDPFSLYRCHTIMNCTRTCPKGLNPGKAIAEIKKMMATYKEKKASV
Chain of Complex II/SDH succinate ubiquinone reductase (SQR) activity (Q99643 30-169): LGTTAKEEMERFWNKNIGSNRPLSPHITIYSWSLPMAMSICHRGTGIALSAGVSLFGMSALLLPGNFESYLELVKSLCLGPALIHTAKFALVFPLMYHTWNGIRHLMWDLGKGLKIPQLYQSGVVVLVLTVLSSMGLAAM
Chain of Complex II/SDH succinate ubiquinone reductase (SQR) activity (O14521 57-159): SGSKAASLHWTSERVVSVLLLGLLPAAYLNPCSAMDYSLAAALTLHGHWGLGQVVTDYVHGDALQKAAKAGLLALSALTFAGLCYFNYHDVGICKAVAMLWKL

For `O=C(CC(=O)C(F)(F)F)c1cccs1` [TTFA, 4,4,4-trifluoro-1-(thiophen-2-yl)butane-1,3-dione], in series [1], the “Cytotoxicity as single agent in MM” value is given as “did not elicit cytotoxicity” and the “Sensitization of resistant MM cell lines to ABT-199” value is “potent sensitization; also recorded: sensitizes MM cells to ABT-199; also recorded: sensitized resistant MM cells to ABT-199”. Besides, the “Effect on Dex-induced death” value in series [1] (TTFA 100 uM, DEX 0.5 uM, ABT-199 0.5 uM, 24 hrs) is “additive to Dex-induced death”. Moreover, the “Sensitization of MM patient cells to ABT-199” value in series [2] is listed as “potent sensitization; also recorded: sensitizes”. Moreover, in series [3], the “Cytotoxicity in normal cells of myeloma patient sample” value was “did not exhibit significant cytotoxicity”. In addition, in series [4] (SDH inhibition with TTFA), the BIM expression result is “induction of BIM” and the “BIM-Bcl-2 binding (co-immunoprecipitation)” value is recorded as “enhanced BIM-Bcl-2 binding”. In series [4] (TTFA treated cells), the Foxo3a localization entry is recorded as “nuclear localization” and the Foxo3a phosphorylation entry was “reduction of Foxo3a phosphorylation”. Moreover, the “SQR activity upon addition of inhibitor” value in series [5] is listed as “lack of activity”. Also, in series [5] (MM cells), the “SQR activity at maximal dose of TTFA that did not cause cytotoxicity in MM” value was “inhibited SQR activity”.
As for `O=C(O)CC[N+](=O)[O-]` [3-NPA], the “Sensitization of resistant MM cell lines to ABT-199” value in series [1] (setting [7]) is recorded as “not as effective”; in series [1] (ABT-199 0.5 μM with TTFA 100 μM, piericidin 0.001 mM or 3NPA 1 mM, 24 hrs, Annexin V/DAPI, listed as 3NPA), “not as effective as TTFA”.
For the compound `COc1[nH]c(=O)c(C(=O)C(C)CC(C)C(Cl)CCl)c(O)c1OC` (centres unmarked) [atpenin A5, 3-[5,6-dichloro-2,4-dimethylhexanoyl]-4-hydroxy-5,6-dimethoxy-1H-pyridin-2-one], the “Sensitization of resistant MM cell lines to ABT-199” value in series [1] (setting [7]) is “sensitizes resistant cell lines”.
The same measure, in the same setting: for `C/C=C(\C)[C@H](O)[C@H](C)/C=C(C)/C=C/C/C(C)=C/Cc1nc(OC)c(OC)c(O)c1C` [piericidin] the value was “not as effective”.
`CC1(C)CCC(CN2CCN(c3ccc(C(=O)NS(=O)(=O)c4ccc(NCC5CCOCC5)c([N+](=O)[O-])c4)c(Oc4cnc5[nH]ccc5c4)c3)CC2)=C(c2ccc(Cl)cc2)C1` [ABT-199, 4-(4-{[2-(4-chlorophenyl)-4,4-dimethylcyclohex-1-en-1-yl]methyl}piperazin-1-yl)-N-({3-nitro-4-[(tetrahydro-2H-pyran-4-ylmethyl)amino]phenyl}sulfonyl)-2-(1H-pyrrolo[2,3-b]pyridin-5-yloxy)benzamide]: the “Cytotoxicity as single agent in MM” value in series [1] (individually) is recorded as “did not elicit cytotoxicity”. Besides, in series [3] (bone marrow aspirate of patient sample #2), the “Cytotoxicity in normal cells of myeloma patient sample” value is given as “did not exhibit significant cytotoxicity”. In addition, the “Share of t(11;14) MM patients responsive to single agent” value was “About 40%” in series [6] (listed as venetoclax) and 40% in series [6].
Consider malonate, for which the “SQR activity upon addition of inhibitor” value in series [5] is “lack of activity”.
